Source: US9999218B2, “Pest control formulations and methods of making and using same” (0903608 B.C. Ltd., priority 2011, dated 2018)
Where two headings read alike, the source gives them in different places.

Tests used:
adult bed bugs [1] = system: adult bed bugs
Description: This example illustrates the dry residual pesticidal activity of formulations comprising further pesticidal natural oils (thyme, garlic and neem oils) with acetophenone as the polar aromatic solvent. Solutions were prepared using 5.5% by weight natural oil; the percentage by weight of organic solvent indicated in Table 20 and an appropriate amount of isopropanol as a carrier diluent. Solvent was added to a final concentration of 1.5 mol/kg. Solutions were also prepared of each natural oil alone (5.5% by weight with an appropriate amount of isopropanol as a carrier diluent), and of the polar organic solvent alone (the percent by weight indicated in Table 20 with an appropriate amount of isopropanol as a carrier diluent). Treated Groups for each solution were prepared by treating filter paper, 90 mm in diameter, with 1.0 mL of solution and allowing it to air dry for four hours. A known number of adults (usually 10) were added to each treated dish, four hours after treatment. Bed bug mortality was assessed immediately after infestation and at 1-hour, 2-hour, 4-hour, 6-hour, 8-hour, 10 hour, 12-hour, and 24-hour intervals, and at 24-hour intervals thereafter until 14 days after infestation. Adult bed bugs were counted dead if they were unresponsive when stimulated.

adult bed bugs [2] = system: adult bed bugs; remark: listed apart in the source
Description: This example illustrates the dry residual pesticidal activity of formulations comprising varying pesticidal natural oils (oregano, clove and cinnamon oils) with acetophenone as the polar aromatic solvent. Solutions were prepared using 5.5% by weight natural oil; the percent by weight of acetophenone indicated in Table 19 and an appropriate amount of isopropanol as a carrier diluent. The percent by weight of solvent was at a final concentration of 1.5 mol/kg. Solutions were also prepared of each natural oil alone (5.5% by weight with an appropriate amount of isopropanol as a carrier diluent), and of acetophenone alone (the percent by weight indicated in Table 19 with an appropriate amount of isopropanol as a carrier diluent). Treated Groups for each solution were prepared by treating filter paper, 90 mm in diameter, with 1.0 mL of solution and allowing it to air dry for four hours. A known number of adults (usually 10) were added to each treated dish, four hours after treatment. Bed bug mortality was assessed immediately after infestation and at 1-hour, 2-hour, 4-hour, 6-hour, 8-hour, 10 hour, 12-hour, and 24-hour intervals, and at 24-hour intervals thereafter until 14 days after infestation. Adult bed bugs were counted dead if they were unresponsive when stimulated.

adult bed bugs [3] = type: in vivo; conditions: […] neem oil + […] named solvent in isopropanol, 4 h dried residue
bed bug eggs [4] = type: in vivo, Cimex lectularius L.; conditions: […] neem oil + named solvent in isopropanol; 4 h dried residue; 3 weeks after infestation
Text: Immediately after infestation, and at 1-, 2-, and 3-week intervals thereafter, the numbers of hatched and unhatched eggs present in the sealed dishes were counted and compared to other Treated Groups. One egg was counted as “hatched” for every new nymph present in the petri dish when compared with the prior interval. Table 13 compares the % egg eclosion of the treated groups at the 3-week observation interval. The maximum mortality data obtained in Example 3, above, are included for comparison purposes.

bed bug eggs [5] = assay: Prevention of egg emergence by various pesticidal natural oils (Example 11); type: in vivo, Cimex lectularius L.; conditions: for % Eclosion (3 weeks post-infest.): 2 h dried residue, five eggs
Description: Five bed bug eggs were added to each treated dish, two hours after treatment. Immediately after infestation, and at 1-, 2-, and 3-week intervals thereafter, the numbers of hatched and unhatched eggs present in the sealed dishes were counted and compared to other Treated Groups. One egg was counted as “hatched” for every new nymph present in the petri dish when compared with the prior interval. Table 12 compares the mean % egg eclosion of the treated groups at three weeks post-infestation. The maximum mortality data obtained in Example 2, above, are included for each formulation, for comparison purposes.

adult bed bugs [6] = conditions: for LT50: 2 h dried residue on filter paper; for Max Mortality: 2 h dried residue, observed until 33 days
Description: 1.0 mL of each solution was applied to three replicates of filter paper, 90 millimeters in diameter, contained in petri dishes (Treated Groups). Treated Groups and three replicates of an untreated Control Group were allowed to dry for two hours prior to infestation with a known number of adult bed bugs (approximately half male and half female).
Bed bug mortality was assessed immediately after infestation and at 2-, 4-, 8-, 12-, and 24-hour intervals after infestation, and daily thereafter until 33 days after infestation. Adult bed bugs were counted dead if they were unresponsive when stimulated.

[7] = 4 h dried residue on filter paper
[8] = […] by weight oil and/or 18.25% w/w acetophenone in isopropanol, 4 h dried residue on filter paper
[9] = time of maximum mortality, 4 h dried residue on filter paper
[10] = […] oil + 5.0% acetophenone + […] sodium lauryl sulphate in water
[11] = […] oil + 5.0% ethyl lactate + […] sodium lauryl sulphate in water

Molecule: CC(=O)c1ccccc1 [Acetophenone]
- LT50 (adult bed bugs [1]; [7]): 11 h
- Max Mortality (adult bed bugs [1]; [8]): 100%
- Time (adult bed bugs [1]; [9]): 48 h
- LT50 (adult bed bugs [2]; [7]): 17 h
- Max Mortality (adult bed bugs [2]; [8]): 100%
- Time (adult bed bugs [2]; [9]): 53 h
- Time to Max Mortality (adult bed bugs [3]): 24 h
- Max. Mortality (adult bed bugs [3]; observed until 14 days): 100%
- % Eclosion (bed bug eggs [4]): 0%

Molecule: C=CCc1ccc(O)c(OC)c1 [Eugenol]
- prevention of egg eclosion (bed bug eggs [5]; […] by weight oil with 5.0% acetophenone, all observation intervals): some increased prevention of egg emergence
- % Eclosion (3 weeks post-infest.) (bed bug eggs [5]; […] oil + 5.0% acetophenone in water): 20%
- % Eclosion (3 weeks post-infest.) (bed bug eggs [5]; […] oil + 5.0% ethyl lactate in water): 40%
- prevention of egg eclosion (bed bug eggs [5]; […] oil combined with 15.5% acetophenone by weight): complete prevention of egg eclosion
- LT50 (adult bed bugs [6]; [10]): 2.82 h
- Max Mortality (adult bed bugs [6]; [10]): 100%
- LT50 (adult bed bugs [6]; [11]): 9.91 h
- Max Mortality (adult bed bugs [6]; [11]): 100%

Molecule: Cinnamon Oil
- Max Mortality (adult bed bugs [1]; in vivo): 100%
- Max Mortality (adult bed bugs [2]; in vivo): 90%
